Assay results as given in patent US20250346569A1, “NEW DERIVATIVES FOR TREATING TRPM3 MEDIATED DISORDERS” (Katholieke Universiteit Leuven, priority 2022, published 2025).

Biological target: T1, mouse TRPM3α2 (mTRPM3) ion channel (Mus musculus, UniProt J9SQF3)
T1 construct: expressed in transfected cells; host or cells: flip-in HEK293
Test: Monitoring the TRPM3 ion channel driven Ca2+ uptake (Fluo-4 AM assay)
Format: cell-based
Details: TRPM3 overexpressing flip-in HEK293 cells, channel stimulated with Pregnenolone sulfate (PS) 50 μM
Procedure, shortened: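 Flp-In HEK293 cells overexpressing mTRPM3α2, loaded with Fluo-4 AM and added to wells holding compound plus 50 μM pregnenolone sulfate in Ca2+-containing Krebs buffer. Fluorescence (ex 485/em 535) read right after cell addition. Inhibition normalised to vehicle and positive-control inhibitor; IC50 derived.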

T1 sequence (J9SQF3 1-1709 isoform J9SQF3-12): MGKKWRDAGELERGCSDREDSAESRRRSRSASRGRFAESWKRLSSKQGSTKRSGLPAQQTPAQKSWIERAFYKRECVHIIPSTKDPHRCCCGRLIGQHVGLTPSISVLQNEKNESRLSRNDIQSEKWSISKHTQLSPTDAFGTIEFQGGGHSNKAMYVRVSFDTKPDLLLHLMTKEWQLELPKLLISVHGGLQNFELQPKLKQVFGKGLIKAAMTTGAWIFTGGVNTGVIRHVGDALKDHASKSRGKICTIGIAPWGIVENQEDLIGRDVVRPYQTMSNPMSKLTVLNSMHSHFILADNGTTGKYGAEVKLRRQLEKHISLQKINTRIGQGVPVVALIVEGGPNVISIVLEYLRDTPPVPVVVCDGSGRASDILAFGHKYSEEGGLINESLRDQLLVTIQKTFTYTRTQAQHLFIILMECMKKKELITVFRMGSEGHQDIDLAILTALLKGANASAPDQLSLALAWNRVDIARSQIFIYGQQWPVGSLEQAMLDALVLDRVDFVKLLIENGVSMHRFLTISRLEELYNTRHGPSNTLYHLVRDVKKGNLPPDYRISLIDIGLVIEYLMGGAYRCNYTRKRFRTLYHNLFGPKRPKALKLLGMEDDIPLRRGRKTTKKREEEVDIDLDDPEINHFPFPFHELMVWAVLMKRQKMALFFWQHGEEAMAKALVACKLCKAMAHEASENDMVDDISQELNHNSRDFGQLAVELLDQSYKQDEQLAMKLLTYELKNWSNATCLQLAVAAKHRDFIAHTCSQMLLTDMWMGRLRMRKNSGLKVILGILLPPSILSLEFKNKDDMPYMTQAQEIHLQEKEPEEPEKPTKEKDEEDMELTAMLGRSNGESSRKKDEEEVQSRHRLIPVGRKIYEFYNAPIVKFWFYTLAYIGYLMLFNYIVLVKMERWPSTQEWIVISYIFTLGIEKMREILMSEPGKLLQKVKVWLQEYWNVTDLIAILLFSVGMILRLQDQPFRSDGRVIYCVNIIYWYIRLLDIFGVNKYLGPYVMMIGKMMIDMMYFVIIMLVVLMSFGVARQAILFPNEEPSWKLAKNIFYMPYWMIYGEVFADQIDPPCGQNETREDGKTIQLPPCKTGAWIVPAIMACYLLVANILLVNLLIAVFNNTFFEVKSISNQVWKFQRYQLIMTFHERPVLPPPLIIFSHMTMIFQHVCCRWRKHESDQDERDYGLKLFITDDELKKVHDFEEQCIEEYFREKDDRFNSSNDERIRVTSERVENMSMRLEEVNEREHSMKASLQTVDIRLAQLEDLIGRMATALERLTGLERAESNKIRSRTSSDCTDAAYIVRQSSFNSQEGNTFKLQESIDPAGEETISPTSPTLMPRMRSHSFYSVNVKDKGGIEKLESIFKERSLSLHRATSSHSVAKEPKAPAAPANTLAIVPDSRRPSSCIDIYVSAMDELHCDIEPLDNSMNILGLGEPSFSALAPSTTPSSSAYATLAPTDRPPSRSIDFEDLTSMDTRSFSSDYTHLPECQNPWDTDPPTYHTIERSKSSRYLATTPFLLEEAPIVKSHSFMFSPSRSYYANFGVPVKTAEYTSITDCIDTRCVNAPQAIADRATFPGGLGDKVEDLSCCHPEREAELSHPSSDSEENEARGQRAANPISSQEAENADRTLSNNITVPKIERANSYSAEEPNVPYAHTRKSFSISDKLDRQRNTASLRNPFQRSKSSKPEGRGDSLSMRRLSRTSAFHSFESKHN

| Structure (SMILES) | IC50 |
| --- | --- |
| Cc1sc2ccc(OCc3ccccc3)cc2c1C(=O)NC1CC(F)(F)C1 [Cpd 089, 5-(benzyloxy)-N-(3,3-difluorocyclobutyl)-2-methyl-1-benzothiophene-3-carboxamide] | > 20 µM |
| Cc1sc2ccc(OCc3cccnc3C(F)(F)F)cc2c1C(=O)NC1CC(F)(F)C1 [Cpd 090, N-(3,3-difluorocyclobutyl)-2-methyl-5-{[2-(trifluoromethyl)pyridin-3-yl]methoxy}-1-benzothiophene-3-carboxamide] | > 20 µM |
| Cc1sc2ccc(OCc3cccnc3C(F)(F)F)cc2c1C(=O)NC1CCOC1 (stereo not shown) [Cpd 097, 2-methyl-N-(oxolan-3-yl)-5-{[2-(trifluoromethyl)pyridin-3-yl]methoxy}-1-benzothiophene-3-carboxamide] | < 1 µM |
| Cc1sc2ccc(OCc3ccccc3)cc2c1C(=O)NCC(C)(C)N1CCOCC1 [Cpd 098, 5-(benzyloxy)-2-methyl-N-[2-methyl-2-(morpholin-4-yl)propyl]-1-benzothiophene-3-carboxamide] | 1 to 20 µM |
| Cc1sc2ccc(OCc3cccnc3C(F)(F)F)cc2c1C(=O)NCC(C)(C)N1CCOCC1 [Cpd 099, 2-methyl-N-[2-methyl-2-(morpholin-4-yl)propyl]-5-{[2-(trifluoromethyl)pyridin-3-yl]methoxy}-1-benzothiophene-3-carboxamide] | 1 to 20 µM |
| Cc1sc2ccc(OCc3ccccc3)cc2c1C(=O)NCC(C)(C)O [Cpd 100, 5-(benzyloxy)-N-(2-hydroxy-2-methylpropyl)-2-methyl-1-benzothiophene-3-carboxamide] | 1 to 20 µM |
| Cc1sc2ccc(OCc3cccnc3C(F)(F)F)cc2c1C(=O)NCC(C)(C)O [Cpd 101, N-(2-hydroxy-2-methylpropyl)-2-methyl-5-{[2-(trifluoromethyl)pyridin-3-yl]methoxy}-1-benzothiophene-3-carboxamide] | < 1 µM |
| Cc1sc2ccc(OCc3ccccc3)cc2c1C(=O)NCC1CCC(=O)N1 (stereo not shown) [Cpd 102, 5-(benzyloxy)-2-methyl-N-[(5-oxopyrrolidin-2-yl)methyl]-1-benzothiophene-3-carboxamide] | 1 to 20 µM |

Continued, values first:

| IC50 | Structure (SMILES) |
| --- | --- |
| < 1 µM | Cc1sc2ccc(OCc3ccccn3)cc2c1C(=O)NC1(CO)COC1 [Cpd 086, N-[3-(hydroxymethyl)oxetan-3-yl]-2-methyl-5-[(pyridin-2-yl)methoxy]-1-benzothiophene-3-carboxamide] |
| < 1 µM | Cc1sc2ccc(OCc3ccccc3F)cc2c1C(=O)NC1(C(N)=O)COC1 [Cpd 087, 3-{5-[(2-fluorophenyl)methoxy]-2-methyl-1-benzothiophene-3-amido}oxetane-3-carboxamide] |
| < 1 µM | Cc1sc2ccc(OCc3ccccn3)cc2c1C(=O)NC1(C(N)=O)COC1 [Cpd 088, 3-{2-methyl-5-[(pyridin-2-yl)methoxy]-1-benzothiophene-3-amido}oxetane-3-carboxamide] |
| < 1 µM | Cc1sc2ccc(OCc3ccccc3)cc2c1C(=O)Nc1ccn(C)n1 [Cpd 091, 5-(benzyloxy)-2-methyl-N-(1-methyl-1H-pyrazol-3-yl)-1-benzothiophene-3-carboxamide] |
| < 1 µM | Cc1sc2ccc(OCc3cccnc3C(F)(F)F)cc2c1C(=O)Nc1ccn(C)n1 [Cpd 092, 2-methyl-N-(1-methyl-1H-pyrazol-3-yl)-5-{[2-(trifluoromethyl)pyridin-3-yl]methoxy}-1-benzothiophene-3-carboxamide] |
| < 1 µM | Cc1sc2ccc(OCc3ccccc3F)cc2c1C(=O)NC1CCNC1=O (stereo not shown) [Cpd 093, 5-[(2-fluorophenyl)methoxy]-2-methyl-N-(2-oxopyrrolidin-3-yl)-1-benzothiophene-3-carboxamide] |
| < 1 µM | Cc1sc2ccc(OCc3cccnc3C(F)(F)F)cc2c1C(=O)NC1CCNC1=O (stereo not shown) [Cpd 094, 2-methyl-N-(2-oxopyrrolidin-3-yl)-5-{[2-(trifluoromethyl)pyridin-3-yl]methoxy}-1-benzothiophene-3-carboxamide] |
| < 1 µM | Cc1sc2ccc(OCc3ccccc3)cc2c1C(=O)NC1CCOC1 (stereo not shown) [Cpd 096, 5-(benzyloxy)-2-methyl-N-(oxolan-3-yl)-1-benzothiophene-3-carboxamide] |
